According to US7928368B2, “Micropillar array electrospray chip” (Licentia Oy, priority 2007, dated 2011):
Where a name gives a salt, the structure may show the parent alone.

System: rat hepatocytes
Assay: metabolism sample: incubation of sibutramine with rat hepatocytes, metabolites detected by μPESI/MS
Assay type: in vitro ADME
Conditions: R-enantiomer of sibutramine hydrochloride incubated with rat hepatocytes for 8 h, 2.5-μl injection, Q-TOF Micro
Method: For bioanalysis experiments verapamil, angiotensin I, angiotensin II, substance P, and horse heart myoglobin were used as test compounds and 2.5 μl of each sample was pipetted to the sample introduction spot. For the measurements of linearity and sensitivity verapamil was dissolved into acetonitrile:water (95:5) with 0.1% formic acid at concentrations of 10 pM to 10 μM. The metabolism sample was prepared by incubating R-enantiomer of sibutramine hydrochloride (purity>99%) with rat hepatocytes for 8 h. After sample preparation the sample was evaporated dryness and the residue was diluted to 50 μl of methanol. 10 μl of sample was dissolved into 500 μl acetonitrile:water (95:5) with 0.1% formic acid.
The peptides (angiotensin I, angiotensin II, and substance P) and the protein (horse heart myoglobin) were diluted into 80% aqueous methanol containing 1% acetic acid (two separate samples). The concentrations were 5 μM for the peptides and 300 nM for horse heart myoglobin. Full-scan mass spectra ranging from m/z 400 to 750 were measured from the peptide mixture and m/z 700 to 950 from the protein in the positive mode. Sibutramine metabolism sample was measured with Q-TOF Micro. A mass spectrum of solvent blank sample was subtracted from that of metabolism sample. […]

CC(C)CC(N(C)C)C1(c2ccc(Cl)cc2)CCC1 (stereo not shown) [sibutramine, sibutramine hydrochloride]
sibutramine metabolites found in metabolism sample: small amounts of sibutramine glucuronides were found
